The results in this text go back to PMC8147781, “Discovery of Pyrrolidine-2,3-diones as Novel Inhibitors of P. aeruginosa PBP3” (Antibiotics, 2021).

Broadly, the IC50 is the concentration that gives 50% inhibition. Broadly, the Kd is the free concentration of one partner at which half of the binding sites on the other are occupied at equilibrium, for simple one-to-one binding.

Assay [1] concerns the target T1, PBP3 of P. aeruginosa (PaPBP3) (Pseudomonas aeruginosa, UniProt G3XD46).
T1 construct: P. aeruginosa PBP3 (amino acids 40 to 563); His-tag; made in house; host or cells: E. coli BL21 (DE3) Rosetta, plasmid pET41_PBP-3
Nature of the assay: S2dfluo fluorescence transpeptidase assay. The assay is classed as biochemical. The note with it: 300 nM PaPBP3, 30 min preincubation, 37 °C; for IC50: read-out: IC50 Determination with PaPBP3, S2dfluo Assay. On the procedure: The assays were carried out in the presence of 5% DMSO and 0.01% Triton X100 to avoid the formation of colloidal structures and adsorption of protein and/or compounds to surfaces. The Z’-factor determined for the assay was 0.73 ± 0.28, indicating the suitability and robustness of the assay for high throughput screening (HTS) (Figure 1B,C).
The activity of soluble ^PaPBP3 (300 nM) was measured in the presence of 0.8 mM S2d, 1 mM D-alanine and 0.5 mM mBBr for 25 min by monitoring the increase in the fluorescence intensity of mBBr at Ex/Em: 394/490 nm using an Infinite M1000 microplate reader (Tecan, Männedorf, Switzerland). To test the effect of inhibitors, 100 µM or 0.8 to 100 µM of compounds diluted in 96% DMSO were incubated for 30 min and 450 rpm with 300 nM soluble PBP3. The incubation period was set to improve the binding of non-covalent inhibitors and 0.01% Triton X100 (Sigma-Aldrich, Taufkirchen, Germany) was added to prevent aggregation of compounds. The enzyme reaction was started by adding a substrate mix of 0.8 mM S2d and […]. The enzyme, compound and substrate mix were mixed 1:1, pipetted with a Liquidator 96 (Melter Toledo, Gießen, Germany) and the fluorescence intensity was directly monitored with an Infinite M1000 microplate reader (Tecan) at Ex/Em: 394/490 nm. The assay was performed in black, flat-bottom 96-well microplates (Greiner Bio-One, Kremsmünster, Austria) at 37 °C in Sorensen Phosphate Buffer (57 mM Na2HPO4 and 10 mM KH2PO4, pH 7.5 + 0.01% Triton X-100). The velocity of the PBP3 reaction was calculated in the presence of each concentration of compound and the velocity values were used to estimate IC50 by sigmoidal nonlinear regression, using Prism v.9 software (San Diego, CA, USA) and the velocity of the reaction at each concentration.

The subject of assay [2] is P. aeruginosa K2896 ΔmexBΔmexXYΔmexCD-oprJ. Nature of the assay: MIC broth microdilution, P. aeruginosa K2896 efflux mutant. Format: cell-based, Pseudomonas aeruginosa. Particulars: ΔmexB; ΔmexX, ΔmexCD-oprJ, with 4 µg/mL PMBN. The source says:
(§1) The results presented above implied that seven pyrrolidine-2,3-dione derivatives inhibited the activity of ^PaPBP3 in vitro. Consequently, we were very interested in investigating the potential of these compounds to affect the growth of P. aeruginosa. Two P. aeruginosa bacterial strains (the wild-type PAO1 and the isogenic ΔmexB ΔmexX ΔmexCD-oprJ efflux pump mutant) were used to determine the MIC and the potential role of the main P. aeruginosa efflux systems in compound uptake. To increase the antibacterial sensitivity of the tested P. aeruginosa isolates to the potential inhibitors, we performed MIC experiments in the presence and absence of a sub-MIC concentration (4 µg/mL) of the outer membrane permeabilising polymyxin B nonapeptide (PMBN). […] Thus, we concluded that the physicochemical properties of the pyrrolidine-2,3-dione compounds were perhaps not yet favourable enough to cross the P. aeruginosa cell envelope without a permeabiliser because of their high hydrophobicity.
(§2) The wild-type P.aeruginosa PAO1 and the isogenic P. aeruginosa K2896 ΔmexBΔmexXYΔmexCD-oprJ isolates were used to determine the MIC in the presence and absence of PMBN [48].
(§3) MIC determination was performed via standard broth microdilution according to the Clinical & Laboratory Standards institute guidelines. Overnight colonies grown on BD-Columbia agar with 5% Sheep Blood (Becton Dickinson, Franklin Lakes, NJ, USA), were diluted in Mueller Hinton Broth 2 cation adjusted (MH+) medium (Thermo Fisher Scientific) to a concentration of 5 × 10^5 CFU/mL. Serial dilutions (1:2) of test compounds were incubated at 37 °C with 5 × 10^4 bacteria in a final volume of 100 μL. Sterile and growth controls in the presence of 1% DMSO and PMBN if the case, and the positive controls, aztreonam (AZT) and tigecycline (TIG) were included in the experiments (Table S4). The MICs were determined visually after 18 h at 37 °C and confirmed by the addition of 10% PrestoBlue (ThermoFisher Scientific) reagent according to the manufacture’s protocol. The fluorescence signal of PrestoBlue reagent was measured at Ex/Em: 550/595 nm after 30 min incubation at 37 °C using at a ClarioStar microplate reader (BMG Labtech). PrestoBlue reduction occurs in the presence of living cells and consequently turns red in colour and is highly fluorescent.
In general terms: Dilution methods test growth across graded concentrations, often in twofold steps.

Assay [3] concerns P. aeruginosa PAO1 (wild-type strain). Nature of the assay: MIC broth microdilution, P. aeruginosa PAO1. Format: cell-based, Pseudomonas aeruginosa. The note with it: wild-type strain, with 4 µg/mL PMBN.
Source text: as §1, §2, §3

In assay [4] the target is T2, PaPBP3 coated on a CM5 chip (Pseudomonas aeruginosa, UniProt G3XD46).
T2 construct: P. aeruginosa PBP3 (amino acids 40 to 563); His-tag; made in house; host or cells: E. coli BL21 (DE3) Rosetta, plasmid pET41_PBP-3
As to the kind of experiment: Surface plasmon resonance (SPR), steady-state analysis. Particulars: 25 °C. The assay is classed as binding. The procedure:
Next, we confirmed the binding of the best inhibitors (analogues 34, 35, 40, 38 and 37) by surface plasmon resonance (SPR), using ^PaPBP3 coated on a CM5 chip as the ligand. The sensorgrams (Figure A1C and Figure A2C) indicated fast association and dissociation with all compounds tested. Dissociation constants (Kd) were determined via steady-state analysis using the maximum resonance signal obtained with a range of analyte concentrations.
SPR experiments were performed at 25 °C by using a Biacore T200 instrument from Cytiva (Marlborough, MA, USA). Purified ^PaPBP3 was coated on a CM5 chip, that was activated with EDC/NHS (1-ethyl-3-(3-dimethylaminopropyl) carbodiimide/N-hydroxysuccinimide) beforehand and blocked with ethanolamine after protein attachment. We achieved a protein amount of 11.820 RU. For every analyte, two concentration series between 3.25 µM and 200 µM were prepared in the running buffer (13 mM NaCl, 257 µM KCl, 171 µM KH2PO4, 950 µM Na2HPO4, 0.05% Tween-20 and 5% DMSO, pH 7.4) in a 96 well plate. Prior to the injection, the baseline was determined using running buffer for 300 s. Then, the analytes were then associated for 100 s and dissociated for 300 s with a flow rate of 30 µL/min. A 30 s washing step with 50% DMSO was used after every injection to regenerate the chip. In the final step, ten different DMSO concentrations ranging from 4.0% to 5.8% were used as the internal solvent correction. Steady state analysis was performed by using the internal Biacore software and figures were prepared with Prism v.8 using the points of one concentration series, respectively.
(SPR reads the build-up and loss of mass on a sensor chip optically.)

SMILES strings stand for the structures. Converted amounts (≈) assume the structure as drawn. “And” between values parts separate entries of the source, which are not always exact repeats. Identical values can stand only once. Bounds are passed on as bounds.

T1 sequence (G3XD46 40-563): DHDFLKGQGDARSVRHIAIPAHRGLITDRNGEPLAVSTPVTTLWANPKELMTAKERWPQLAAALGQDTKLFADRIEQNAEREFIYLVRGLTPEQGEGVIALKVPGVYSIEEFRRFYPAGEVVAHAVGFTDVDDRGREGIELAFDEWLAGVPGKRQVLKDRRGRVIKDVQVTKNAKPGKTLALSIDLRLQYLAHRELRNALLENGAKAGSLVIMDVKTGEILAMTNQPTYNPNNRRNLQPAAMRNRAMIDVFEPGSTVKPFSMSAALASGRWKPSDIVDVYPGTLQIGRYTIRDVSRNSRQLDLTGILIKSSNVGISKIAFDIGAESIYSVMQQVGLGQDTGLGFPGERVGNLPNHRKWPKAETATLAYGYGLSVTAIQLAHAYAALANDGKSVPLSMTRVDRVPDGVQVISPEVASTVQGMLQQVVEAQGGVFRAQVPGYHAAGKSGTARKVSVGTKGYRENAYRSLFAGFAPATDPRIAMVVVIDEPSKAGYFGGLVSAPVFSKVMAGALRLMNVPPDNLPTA
T2 sequence (G3XD46 40-563): as above

With `O=C(C1=C(O)C(=O)N(Cc2cccc(F)c2)C1c1ccc(Cl)cc1)c1ccc(Br)cc1` (stereo not shown) [Compound 1], the IC50 in assay [1] was determined as 28 ± 9 µM. In assay [2], the “MIC (µM) against P. aeruginosa K28926” value is given as 12.5 µM (≈ 6.26 µg/mL).

In the case of `O=C1NC(c2ccc(Cl)cc2)C(C(=O)c2ccc(Br)cc2)=C1O` (stereo not shown) [Compound 32, 4-(4-bromobenzoyl)-5-(4-chlorophenyl)-3-hydroxy-1,5-dihydropyrrol-2-one], in assay [1], the “IC50 Determination with PaPBP3, S2dfluo Assay” value (from here on “IC50 Determination with PaPBP3”) was “loss of the inhibitory effect” and the 50% inhibitory concentration (IC50) is above 100 µM. Besides, the “MIC (µM) against P. aeruginosa K28926” value in assay [2] is above 100 µM. For the same molecule, in assay [3], the “MIC (µM) against P. aeruginosa PAO1” value was above 100 µM.

Regarding `CCN1C(=O)C(O)=C(C(=O)c2ccc(Br)cc2)C1c1ccc(Cl)cc1` (stereo not shown) [Compound 33], in assay [1], the “IC50 Determination with PaPBP3” value is listed as “loss of the inhibitory effect” and the IC50 is above 100 µM. Moreover, the “MIC (µM) against P. aeruginosa K28926” value in assay [2] is above 100 µM. In addition, in assay [3], the “MIC (µM) against P. aeruginosa PAO1” value was above 100 µM.

In the case of `O=C(C1=C(O)C(=O)N(Cc2cc3ccccc3[nH]2)C1c1ccc(Cl)cc1)c1ccc(Br)cc1` (stereo not shown) [Compound 34, 4-(4-bromobenzoyl)-5-(4-chlorophenyl)-3-hydroxy-1-(1H-indol-2-ylmethyl)-5H-pyrrol-2-one], in assay [1], the half-maximal inhibitory concentration (IC50) came out at 14 ± 9 µM. Also, in assay [4], the Kd is 6.4 µM and 6.44 µM.

Consider `O=C(C1=C(O)C(=O)N(Cc2cc3cc(Cl)ccc3[nH]2)C1c1ccc(Cl)cc1)c1ccc(Br)cc1` (stereo not shown) [Compound 35], for which the IC50 in assay [1] stood at 3 ± 1 µM. The Kd in assay [4] is 9.8 µM and 9.82 µM.

With `O=C(C1=C(O)C(=O)N(Cc2cc3cnccc3[nH]2)C1c1ccc(Cl)cc1)c1ccc(Br)cc1` (stereo not shown) [Compound 36], the half-inhibitory concentration (IC50) in assay [1] was above 100 µM. Besides, the “MIC (µM) against P. aeruginosa K28926” value in assay [2] is 100 µM (≈ 52.3 µg/mL). The “MIC (µM) against P. aeruginosa PAO1” value in assay [3] is recorded as above 100 µM.

As for `O=C(C1=C(O)C(=O)N(CCc2cc3ccccc3[nH]2)C1c1ccc(Cl)cc1)c1ccc(Br)cc1` (stereo not shown) [Compound 37], the IC50 in assay [1] worked out at 16 ± 8 µM. Also, in assay [4], the equilibrium dissociation constant (Kd) was 454 µM and the “Kd (µM) SPR” value is “too high to conclude a specific binding”.

On to `O=C(C1=C(O)C(=O)N(Cc2nc3ccccc3[nH]2)C1c1ccc(Cl)cc1)c1ccc(Br)cc1` (stereo not shown) [Compound 38], for which, in assay [1], the “IC50 Determination with PaPBP3” value is on record as “drastic loss of the inhibitory activity” and the IC50 turned out to be 100 ± 11 µM. In addition, in assay [2], the “MIC (µM) against P. aeruginosa K28926” value is above 100 µM. The equilibrium dissociation constant (Kd) in assay [4] was determined as 62.7 µM. Further, in assay [3], the “MIC (µM) against P. aeruginosa PAO1” value is on record as above 100 µM.

Take `O=C(C1=C(O)C(=O)N(CCc2c[nH]c3ccccc23)C1c1ccc(Cl)cc1)c1ccc(Br)cc1` (stereo not shown) [Compound 40]: in assay [1], the IC50 was determined as 8 ± 4 µM. Moreover, the dissociation constant (Kd) in assay [4] is 22.9 µM.

Turning to `O=C(C1=C(O)C(=O)N(Cc2ccco2)C1c1ccc(Cl)cc1)c1ccc(Br)cc1` (stereo not shown) [Compound 41, 4-(4-bromobenzoyl)-5-(4-chlorophenyl)-1-(furan-2-ylmethyl)-3-hydroxy-5H-pyrrol-2-one], in assay [1], the “IC50 Determination with PaPBP3” value is recorded as “abolished the inhibitory activity” and the IC50 was above 100 µM. In addition, the “MIC (µM) against P. aeruginosa K28926” value in assay [2] came to 25 µM (≈ 11.8 µg/mL).

In the case of `O=C(C1=C(O)C(=O)N(Cc2cscn2)C1c1ccc(Cl)cc1)c1ccc(Br)cc1` (stereo not shown) [Compound 42], in assay [1], the “IC50 Determination with PaPBP3” value was “abolished the inhibitory activity” and the 50% inhibitory concentration (IC50) was above 100 µM. Further, the “MIC (µM) against P. aeruginosa K28926” value in assay [2] is above 100 µM. Moreover, the “MIC (µM) against P. aeruginosa PAO1” value in assay [3] is above 100 µM.

Regarding `CCNC1=C(C(=O)c2ccc(Br)cc2)C(c2ccc(Cl)cc2)N(Cc2cccc(F)c2)C1=O` (stereo not shown) [Compound 43, 4-(4-bromobenzoyl)-5-(4-chlorophenyl)-3-(ethylamino)-1-[(3-fluorophenyl)methyl]-5H-pyrrol-2-one], the 50% inhibitory concentration (IC50) in assay [1] is above 100 µM. Besides, in assay [2], the “MIC (µM) against P. aeruginosa K28926” value is recorded as above 100 µM. For the same molecule, in assay [3], the “MIC (µM) against P. aeruginosa PAO1” value is recorded as above 100 µM.

As to `O=C(C1=C(N2CCOCC2)C(=O)N(Cc2cccc(F)c2)C1c1ccc(Cl)cc1)c1ccc(Br)cc1` (stereo not shown) [Compound 44, 4-(4-bromobenzoyl)-5-(4-chlorophenyl)-1-[(3-fluorophenyl)methyl]-3-(morpholin-4-yl)-5H-pyrrol-2-one], in assay [1], the IC50 was above 100 µM. In addition, in assay [2], the “MIC (µM) against P. aeruginosa K28926” value is recorded as above 100 µM. Further, the “MIC (µM) against P. aeruginosa PAO1” value in assay [3] is recorded as above 100 µM.

Turning to `CCNC1=C(C(=O)c2ccc(Br)cc2)C(c2ccc(Cl)cc2)N(Cc2c[nH]c3ccccc23)C1=O` (stereo not shown) [Compound 45], the half-inhibitory concentration (IC50) in assay [1] was above 100 µM. Moreover, the “MIC (µM) against P. aeruginosa K28926” value in assay [2] is reported as above 100 µM. Also, the “MIC (µM) against P. aeruginosa PAO1” value in assay [3] was above 100 µM.
